Patent US9284350B2, “IAP BIR domain binding compounds” (Pharmascience Inc., priority 2010, dated 2016)

Legend:
[1] = target: T1, XIAP (Homo sapiens, UniProt P98170); assay: Fluorescence polarization-based competition assay, XIAP; assay type: binding; settings: FP assay, ki derived from IC50
T1 construct: fused on or other part: GST tag at the N-terminus (pGEX4T vectors)
Experimental: (§1) Binding of compounds of Formula 1 to target BIR domains was measured using a fluorescence-polarization (FP) assay. Fluorescence-polarization was evaluated using a GENios microplate reader (TECAN) Pro instrument with the excitation filter set at 485 nm and the emission filter set at 535 nm. The final amount of protein used in the assay corresponds to the amount of protein necessary to obtain 80% of the maximum FP value in a P1 or P2 fluorescent (FITC) probe saturation experiment. The compounds potency (IC50) and selectivity, was assessed in the presence of the amount of target protein established, fluorescent probe, and a 10 point serial dilution in assay buffer (50 mM Hepes, pH 7.5, 250 mcg/mL γ-globulin, 2 mM DTT, 1% DMSO) of the selected compounds.
(§2) Assays were carried out in duplicate using untreated black 96-well plates (Corning #3915) and a total volume of 100 microliters, containing 25 microliters of fluorescent probe at a final concentration of 2 nM in assay buffer, 25 microliters of diluted compound, 25 microliters of BIR protein into assay buffer and 25 microliters of assay buffer. Buffer only (blank) or probe only in buffer (G-factor) were used as controls for calibration. The plate was incubated at room temperature in the dark for one hour and FP values in millipolarization units (mP) were recorded using Genios Pro FP reader.
(§3) The measured FP values (mP) were then plotted against compound concentration, and IC50 values were calculated based on a sigmoidal dose-response (variable-slope) curve fit using GraphPad Prism version 4.02 for Windows, GraphPad Software, San Diego Calif. USA and/or CambridgeSoft BioAssay Enterprise Version 10.1. The IC50 value is the concentration of test compound at which 50% of the tracer was displaced. ki values were derived from the calculated IC50 values as described above and according to the equation described in Nikolovska-Coleska, Z. (2004) Anal Biochem 332, 261-273. The results are presented in Table 2, wherein A=less than 25 nM; B=less than 250 nM; C=less than 1000 nM; and D=greater than 1000 nM.

[2] = target: T2, cIAP2 (Homo sapiens, UniProt Q13489); assay: Fluorescence polarization-based competition assay, cIAP2; assay type: binding; settings: FP assay, ki derived from IC50
T2 construct: GST (N); made in house; host or cells: E. coli DH5α
T2 sequence (Q13489 236-349): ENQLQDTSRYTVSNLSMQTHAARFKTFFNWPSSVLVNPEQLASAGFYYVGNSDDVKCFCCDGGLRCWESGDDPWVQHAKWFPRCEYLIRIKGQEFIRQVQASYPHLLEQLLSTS
Experimental: as §1, §2, §3

[3] = target: T3, c-IAP1 (Homo sapiens, UniProt Q13490); assay: Fluorescence polarization-based competition assay, c-IAP1; assay type: binding; settings: FP assay, ki derived from IC50
T3 construct: GST (N); made in house; host or cells: E. coli DH5α
T3 sequence (Q13490 251-363): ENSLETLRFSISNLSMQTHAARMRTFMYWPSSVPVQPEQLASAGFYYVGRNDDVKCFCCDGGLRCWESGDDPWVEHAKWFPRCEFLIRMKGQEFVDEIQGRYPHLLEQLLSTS
Experimental: as §1, §2, §3

[4] = test system: Colorectal carcinoma HCT116 cells; assay: Cell death assay (MTT) in combination with HGS ETR1; assay type: cell-based; settings: with HGS ETR1 30 ng/ml, 72 hours, read-out: HCT116+ mapatubimap EC50
Experimental: Colorectal carcinoma HCT116 cells were cultured as monolayers in 96 well plates at a density of 2000 cells per well in McCoy's 5a medium (HyClone) supplemented with 2.2 g/L sodium bicarbonate, 10% FBS (HyClone) and 1% penicillin/streptomycin (HyClone). 24 hours later, triplicate wells were treated with HGS ETR1 (30 ng/ml) in combination with compound. Cells were incubated in the presence of compound and HGS agonistic Trail receptor antibody, ETR1 (Mapatumamab, 30 ng/ml) for 72 hours. Metabolic viability of remaining cells was assessed by MTT (thiazolyl blue tetrazolium bromide, Sigma) assay.
EC50 values (50% cell survival in the presence of compound as compared to untreated controls) were calculated from survival curves using BioAssay software (CambridgeSoft) and GraphPad Prism (Graph Pad Software Inc.). The results are provided in Table 3, below, wherein A=less than 50 nM; B=less than 250 nM; C=less than 1000 nM; and D=greater than 1000 nM.

T1 sequence (P98170 246-497 limits assumed): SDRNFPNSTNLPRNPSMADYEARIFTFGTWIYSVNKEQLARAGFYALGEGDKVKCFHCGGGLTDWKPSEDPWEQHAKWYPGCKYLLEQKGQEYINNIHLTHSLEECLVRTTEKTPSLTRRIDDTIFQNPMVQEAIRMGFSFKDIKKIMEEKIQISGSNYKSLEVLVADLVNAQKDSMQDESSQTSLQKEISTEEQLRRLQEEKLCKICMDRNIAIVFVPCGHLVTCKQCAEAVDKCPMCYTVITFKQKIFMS

| SMILES | Ki [1] | Ki [2] | Ki [3] | EC50 [4] |
| --- | --- | --- | --- | --- |
| CCN[C@@H](C)C(=O)N[C@H](C(=O)N1CCC[C@H]1CN(CCc1ccccc1)C(=O)c1cn2cccnc2n1)C1CCCCC1 [Compound 2] | > 1000 nM | < 250 nM | < 250 nM | < 1000 nM |
| CCN[C@@H](C)C(=O)N[C@H](C(=O)N1CCC[C@H]1CN(CCc1ccccc1)C(=O)c1cn2cccnc2n1)C1CCOCC1 [Compound 4] | < 1000 nM | < 250 nM | < 250 nM | > 1000 nM |
| CN[C@@H](C)C(=O)N[C@H](C(=O)N1CCC[C@H]1CN(CCc1ccccc1)C(=O)c1cn2cccnc2n1)C(C)(C)C [Compound 6] | < 250 nM | < 25 nM | < 25 nM | < 250 nM |
| CN[C@@H](C)C(=O)N[C@H](C(=O)N1CCC[C@H]1CN(CCc1cccc(F)c1)C(=O)c1cn2cccnc2n1)C(C)(C)C [Compound 12] | < 1000 nM | < 250 nM | < 25 nM | < 250 nM |
| CCN[C@@H](C)C(=O)N[C@H](C(=O)N1CCC[C@H]1CN(CCc1ccccc1)C(=O)c1cn2cccnc2n1)C(C)(C)C [Compound 14] | < 1000 nM | < 250 nM | < 25 nM | < 250 nM |
| CN[C@@H](C)C(=O)N[C@H](C(=O)N1CCC[C@H]1CN(CCc1ccc(F)cc1)C(=O)c1cn2ccccc2n1)C(C)(C)C [Compound 17] | < 250 nM | < 25 nM | < 25 nM | < 50 nM |
| CN[C@@H](C)C(=O)N[C@H](C(=O)N1CCC[C@H]1CN(CCc1ccc(F)cc1)C(=O)c1cn2ccccc2n1)C1CCCCC1 [Compound 18] | < 250 nM | < 25 nM | < 25 nM | < 50 nM |
| CN[C@@H](C)C(=O)N[C@H](C(=O)N1CCC[C@H]1CN(CCc1ccc(F)cc1)C(=O)c1cn2cccnc2n1)C1CCCCC1 [Compound 20] | < 250 nM | < 25 nM | < 25 nM | < 50 nM |
| CN[C@@H](C)C(=O)N[C@H](C(=O)N1CCC[C@H]1CN(CCc1ccccc1)C(=O)c1cn2cc(F)ccc2n1)C(C)(C)C [Compound 32] | < 250 nM | < 25 nM | < 25 nM | < 250 nM |
| CN[C@@H](C)C(=O)N[C@H](C(=O)N1CCC[C@H]1CN(CCc1ccc(F)cc1)C(=O)c1cn2cccnc2n1)[C@@H](C)OC [Compound 36] | < 250 nM | < 25 nM | < 25 nM | < 250 nM |
| C[C@H](N)C(=O)N[C@H](C(=O)N1CCC[C@H]1CN(CCc1ccc(F)cc1)C(=O)c1cn2cccnc2n1)C(C)(C)C [Compound 37] | < 250 nM | < 25 nM | < 25 nM | > 1000 nM |
| CN[C@@H](C)C(=O)N[C@H](C(=O)N1C[C@@H](NC(=O)OCc2ccccc2)C[C@H]1CN(CCc1ccc(F)cc1)C(=O)c1cn2cccnc2n1)C(C)(C)C [Compound 44] | < 250 nM | < 25 nM | < 25 nM | < 250 nM |
| CN[C@@H](C)C(=O)N[C@H](C(=O)N1C[C@@H](OCc2ccccc2)C[C@H]1CN(CCc1ccc(F)cc1)C(=O)c1cn2cccnc2n1)C(C)(C)C [Compound 47] | < 250 nM | < 25 nM | < 25 nM | < 250 nM |
| CN[C@@H](C)C(=O)N[C@H](C(=O)N1C[C@@H](NC(=O)c2ccccc2)C[C@H]1CN(CCc1ccc(F)cc1)C(=O)c1cn2cccnc2n1)C(C)(C)C [Compound 49] | < 1000 nM | < 25 nM | < 25 nM | < 250 nM |
| CN[C@@H](C)C(=O)N[C@H](C(=O)N1CCC[C@H]1CN(CCc1ccc(F)cc1)C(=O)c1cn(-c2ccccc2)nn1)C(C)(C)C [Compound 50] | < 250 nM | < 25 nM | < 25 nM | < 250 nM |
| CN[C@@H](C)C(=O)N[C@H](C(=O)N1CCC[C@H]1CN(CCc1ccc(F)cc1)C(=O)c1cn(-c2ccc(OC)cc2)cn1)C(C)(C)C [Compound 52] | < 250 nM | – | < 25 nM | < 250 nM |
| CN[C@@H](C)C(=O)N[C@H](C(=O)N1CCC[C@H]1CN(CCc1ccc(F)cc1)C(=O)c1cn(-c2c(C)cccc2C)cn1)C(C)(C)C [Compound 54] | < 250 nM | – | < 25 nM | < 50 nM |
| CN[C@@H](C)C(=O)N[C@H](C(=O)N1C[C@@H](NC(C)=O)C[C@H]1CN(CCc1ccc(F)cc1)C(=O)c1cn2cccnc2n1)C(C)(C)C [Compound 55] | < 250 nM | < 25 nM | < 25 nM | > 1000 nM |
| CN[C@@H](C)C(=O)N[C@H](C(=O)N1C[C@@H](NC(=O)Cc2ccccc2)C[C@H]1CN(CCc1ccc(F)cc1)C(=O)c1cn2cccnc2n1)C(C)(C)C [Compound 56] | < 1000 nM | < 25 nM | < 25 nM | < 1000 nM |
| CN[C@@H](C)C(=O)N[C@@H](CN(C)C)C(=O)N1CCC[C@H]1CN(CCc1ccc(F)cc1)C(=O)c1cn2ccccc2n1 [Compound 57] | < 1000 nM | – | < 25 nM | < 1000 nM |
| CN[C@@H](C)C(=O)N[C@H](C(=O)N1CCC[C@H]1CN(CCc1ccc(F)cc1)C(=O)c1cn2ccccc2n1)[C@@H](C)OC [Compound 58] | < 250 nM | < 25 nM | < 25 nM | < 50 nM |
| CN[C@@H](C)C(=O)N[C@H](C(=O)N1C[C@@H](NS(=O)(=O)c2ccccc2)C[C@H]1CN(CCc1ccc(F)cc1)C(=O)c1cn2cccnc2n1)C(C)(C)C [Compound 59] | < 250 nM | < 25 nM | < 25 nM | < 1000 nM |
| CN[C@@H](C)C(=O)N[C@@H](COC)C(=O)N1CCC[C@H]1CN(CCc1ccc(F)cc1)C(=O)c1cn2ccccc2n1 [Compound 60] | < 1000 nM | – | < 25 nM | < 1000 nM |
| CN[C@@H](C)C(=O)N[C@H](C(=O)N1CCC[C@H]1CN(CCc1ccc(F)cc1)C(=O)c1cn(-c2ccccc2)cn1)C(C)(C)C [Compound 61] | < 250 nM | < 25 nM | < 25 nM | < 250 nM |
| CN[C@@H](C)C(=O)N[C@H](C(=O)N1CCC[C@H]1CN(CCc1ccc(F)cc1)C(=O)c1nc2ccccc2o1)C(C)(C)C [Compound 62] | < 250 nM | – | < 25 nM | < 1000 nM |
| CN[C@@H](C)C(=O)N[C@H](C(=O)N1CCC[C@H]1CN(CCc1ccc(F)cc1)C(=O)c1coc(-c2ccccc2)n1)C(C)(C)C [Compound 64] | < 250 nM | – | < 25 nM | < 250 nM |
| CN[C@@H](C)C(=O)N[C@H](C(=O)N1C[C@@H](Oc2ccc(F)cc2)C[C@H]1CN(CCc1ccc(F)cc1)C(=O)c1cn2cccnc2n1)C(C)(C)C [Compound 65] | < 25 nM | < 25 nM | < 25 nM | < 50 nM |
| CN[C@@H](C)C(=O)N[C@H](C(=O)N1CCC[C@H]1CN(CCc1ccc(F)cc1)C(=O)c1cn(-c2ccc(F)cc2)cn1)C(C)(C)C [Compound 66] | < 250 nM | < 25 nM | < 25 nM | < 50 nM |
| CN[C@@H](C)C(=O)N[C@H](C(=O)N1CCC[C@H]1CN(CCc1ccc(F)cc1)C(=O)c1cn(-c2ccc(F)cc2)nn1)C(C)(C)C [Compound 125] | < 250 nM | < 25 nM | < 25 nM | – |
| CN[C@@H](C)C(=O)N[C@H](C(=O)N1CCC[C@H]1CN(CCc1ccc(F)cc1)C(=O)c1nnn(-c2ccc(F)cc2)n1)C(C)(C)C [Compound 126] | < 250 nM | < 25 nM | < 25 nM | – |
